In PubChem BioAssay (NCI):
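Where inhibition never reached the appropriate level, the endpoint shown equals the highest concentration tested. Otherwise, values were interpolated linearly from a five-concentration, 48-hour dose response in 96-well plates. TGI: concentration producing complete growth inhibition.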

Key:
Assay in all cases: NCI-60 cell line screen, 48 h
[1] = system: SW-620 colon
[2] = system: CAKI-1 renal
[3] = system: MDA-MB-435
[4] = system: PC-3 prostate
[5] = system: NCI/ADR-RES ovarian
[6] = system: SK-MEL-2 melanoma
[7] = system: RPMI-8226 leukemia
[8] = system: MDA-N
[9] = system: HT29 colon
[10] = system: RXF 393 renal
[11] = system: OVCAR-5 ovarian
[12] = system: NCI-H522 lung
[13] = system: OVCAR-3 ovarian
[14] = system: OVCAR-4 ovarian
[15] = system: UO-31 renal
[16] = system: OVCAR-8 ovarian
[17] = system: ACHN renal
[18] = system: HCC-2998 colon
[19] = system: MCF7 breast
[20] = system: SF-295 CNS
[21] = system: HS 578T breast
[22] = system: A549 NSCLC
[23] = system: KM12 colon
[24] = system: HCT-116 colon
[25] = system: SR leukemia
[26] = system: SNB-19 CNS
[27] = system: U251 CNS
[28] = system: SK-MEL-5 melanoma
[29] = system: HCT-15 colon
[30] = system: SK-OV-3 ovarian
[31] = system: SF-268 CNS
[32] = system: 786-0 renal
[33] = system: MDA-MB-231 breast
[34] = system: DU-145 prostate
[35] = system: BT-549 breast
[36] = system: CCRF-CEM leukemia
[37] = system: M14 melanoma
[38] = system: K-562 leukemia
[39] = system: UACC-257 melanoma
[40] = system: EKVX NSCLC
[41] = system: COLO 205 colon
[42] = system: NCI-H460 lung
[43] = system: SK-MEL-28 melanoma
[44] = system: UACC-62 melanoma
[45] = system: SF-539 CNS
[46] = system: IGROV1 ovarian
[47] = system: HOP-92 NSCLC
[48] = system: HOP-62 NSCLC
[49] = system: NCI-H23 lung
[50] = system: SN12C renal
[51] = system: MOLT-4 leukemia

Measured: TGI

CC(=O)OCC1OC(N2C(=S)N[C@H]([C@@H](O)[C@H](O)[C@H](O)CO)[C@H]2O)C(OC(C)=O)C(OC(C)=O)C1OC(C)=O (stereo partly specified)
> 100 µM: all assays above
